Assays:
[1] = Dose normalized Cmax in rat at 10 mg/kg, po measured upto 72 hrs by LC-MS/MS analysis; type: ADME, organism-based; conditions: in vivo
[2] = Dose normalized AUC (0 to infinity) in rat at 10 mg/kg, po measured upto 72 hrs by LC-MS/MS analysis; type: ADME, organism-based; conditions: in vivo
[3] = Tmax in mouse at 287 micromol/kg administered as single dose; type: ADME; conditions: in vivo, dose 287 µmol/kg
[4] = Half life in mouse at 143 micromol/kg administered as single dose; type: ADME; conditions: in vivo, dose 143 µmol/kg
[5] = Half life in mouse at 287 micromol/kg administered as single dose; type: ADME; conditions: in vivo, dose 287 µmol/kg
[6] = Half life in mouse at 573 micromol/kg administered as single dose; type: ADME; conditions: in vivo, dose 573 µmol/kg
[7] = Half life in mouse at 1147 micromol/kg administered as single dose; type: ADME; conditions: in vivo, dose 1147 µmol/kg
[8] = Cmax in male cynomolgus monkey at 15 mg/kg, iv measured on day 1; type: ADME, organism-based, Macaca fascicularis; design: route intravenous, dose 15 mg/kg; conditions: in vivo
[9] = Cmax in female cynomolgus monkey at 15 mg/kg, iv measured on day 1; type: ADME, organism-based, Macaca fascicularis; design: route intravenous, dose 15 mg/kg; conditions: in vivo
[10] = Cmax in female cynomolgus monkey at 75 mg/kg, po measured on day 1; type: ADME, organism-based, Macaca fascicularis; design: route oral, dose 75 mg/kg; conditions: in vivo
[11] = Cmax in female cynomolgus monkey at 75 mg/kg, po BID measured on day 8; type: ADME, organism-based, Macaca fascicularis; design: route oral, dose 75 mg/kg; conditions: in vivo
[12] = Cmax in male cynomolgus monkey at 75 mg/kg, po BID measured on day 8; type: ADME, organism-based, Macaca fascicularis; design: route oral, dose 75 mg/kg; conditions: in vivo
[13] = Cmax in female cynomolgus monkey at 150 mg/kg, po measured on day 8; type: ADME, organism-based, Macaca fascicularis; design: route oral, dose 150 mg/kg; conditions: in vivo
[14] = Cmax in male cynomolgus monkey at 150 mg/kg, po BID measured on day 8; type: ADME, organism-based, Macaca fascicularis; design: route oral, dose 150 mg/kg; conditions: in vivo
[15] = Cmax in male cynomolgus monkey at 225 mg/kg, po measured on day 1; type: ADME, organism-based, Macaca fascicularis; design: route oral, dose 225 mg/kg; conditions: in vivo
[16] = Cmax in female cynomolgus monkey at 375 mg/kg, po BID measured on day 8; type: ADME, organism-based, Macaca fascicularis; design: route oral, dose 375 mg/kg; conditions: in vivo
[17] = Cmax in female cynomolgus monkey at 675 mg/kg, po measured on day 1; type: ADME, organism-based, Macaca fascicularis; design: route oral, dose 675 mg/kg; conditions: in vivo
[18] = Cmax in male cynomolgus monkey at 675 mg/kg, po measured on day 1; type: ADME, organism-based, Macaca fascicularis; design: route oral, dose 675 mg/kg; conditions: in vivo
[19] = Tmax in female cynomolgus monkey at 75 mg/kg, po measured on day 8; type: ADME, organism-based, Macaca fascicularis; conditions: in vivo
[20] = Tmax in male cynomolgus monkey at 75 mg/kg, po BID measured on day 8; type: ADME, organism-based, Macaca fascicularis; conditions: in vivo
[21] = Tmax in male cynomolgus monkey at 150 mg/kg, po BID measured on day 8; type: ADME, organism-based, Macaca fascicularis; conditions: in vivo
[22] = Tmax in male cynomolgus monkey at 225 mg/kg, po measured on day 1; type: ADME, organism-based, Macaca fascicularis; conditions: in vivo
[23] = Tmax in female cynomolgus monkey at 375 mg/kg, po BID measured on day 8; type: ADME, organism-based, Macaca fascicularis; conditions: in vivo
[24] = Tmax in female cynomolgus monkey at 675 mg/kg, po measured on day 1; type: ADME, organism-based, Macaca fascicularis; conditions: in vivo
[25] = Tmax in male cynomolgus monkey at 675 mg/kg, po measured on day 1; type: ADME, organism-based, Macaca fascicularis; conditions: in vivo
[26] = AUC (0 to 24 hrs) in female cynomolgus monkey at 75 mg/kg, po measured on day 1; type: ADME, organism-based, Macaca fascicularis; design: time < 24 hr, route oral, dose 75 mg/kg; conditions: in vivo
[27] = AUC (0 to 24 hrs) in female cynomolgus monkey at 150 mg/kg, po BID measured on day 8; type: ADME, organism-based, Macaca fascicularis; design: time < 24 hr, route oral, dose 150 mg/kg; conditions: in vivo
[28] = Half life in female cynomolgus monkey at 150 mg/kg, po measured on day 8; type: ADME, organism-based, Macaca fascicularis; conditions: in vivo
[29] = AUC (0 to 24 hrs) in male cynomolgus monkey at 150 mg/kg, po BID measured on day 8; type: ADME, organism-based, Macaca fascicularis; design: time < 24 hr, route oral, dose 150 mg/kg; conditions: in vivo
[30] = Half life in male cynomolgus monkey at 150 mg/kg, po BID measured on day 8; type: ADME, organism-based, Macaca fascicularis; conditions: in vivo
[31] = AUC (0 to 24 hrs) in male cynomolgus monkey at 225 mg/kg, po measured on day 1; type: ADME, organism-based, Macaca fascicularis; design: time < 24 hr, route oral, dose 225 mg/kg; conditions: male, in vivo
[32] = AUC (0 to 24 hrs) in female cynomolgus monkey at 675 mg/kg, po measured on day 1; type: ADME, organism-based, Macaca fascicularis; design: time < 24 hr, route oral, dose 675 mg/kg; conditions: in vivo
[33] = Half life in female cynomolgus monkey at 675 mg/kg, po measured on day 1; type: ADME, organism-based, Macaca fascicularis; conditions: in vivo
[34] = AUC (0 to 24 hrs) in male cynomolgus monkey at 675 mg/kg, po measured on day 1; type: ADME, organism-based, Macaca fascicularis; design: time < 24 hr, route oral, dose 675 mg/kg; conditions: in vivo
[35] = Half life in male cynomolgus monkey at 675 mg/kg, po measured on day 1; type: ADME, organism-based, Macaca fascicularis; conditions: in vivo
[36] = Drug accumulation in rat at 100 to 900 mg/kg, po BID; type: ADME, organism-based; conditions: in vivo, dose 100-900 mg/kg
[37] = Drug accumulation in monkey at 75 to 375 mg/kg, po BID; type: ADME, organism-based, Macaca mulatta; conditions: rhesus monkey, in vivo, dose 75-375 mg/kg
[38] = AUC (0 to 12 hrs) in po BID dosed cynomolgus monkey administered for 28 days; type: ADME, organism-based, Macaca fascicularis; design: route oral, time 28 day; conditions: in vivo
[39] = Change in normalised Cmax in rat at 10 mg/kg, po measured upto 72 hrs by LC-MS/MS analysis; type: ADME, organism-based; conditions: in vivo
[40] = Change in normalised AUCinfinity in rat at 10 mg/kg, po measured upto 72 hrs by LC-MS/MS analysis; type: ADME, organism-based; conditions: in vivo
[41] = Change in Cmax in rat at 37 umol/kg, po measured upto 72 hrs by LC-MS/MS analysis; type: ADME, organism-based; conditions: in vivo, at 37 µmol/kg
[42] = Change in Cmax in rat at 185 umol/kg, po measured upto 72 hrs by LC-MS/MS analysis; type: ADME, organism-based; conditions: in vivo, at 185 µmol/kg
[43] = Change in Cmax in rat at 500 umol/kg, po measured upto 72 hrs by LC-MS/MS analysis; type: ADME, organism-based; conditions: in vivo, at 500 µmol/kg
[44] = Change in AUC (infinity) in rat at 37 umol/kg, po measured upto 72 hrs by LC-MS/MS analysis; type: ADME, organism-based; conditions: in vivo, at 37 µmol/kg
[45] = Change in AUC(infinity) in rat at 500 umol/kg, po measured upto 72 hrs by LC-MS/MS analysis; type: ADME, organism-based; conditions: in vivo, at 500 µmol/kg
[46] = Change in Cmax in cynomolgus monkey at 92 umol/kg, po measured after 0.083 to 48 hrs by LC-MS/MS analysis; type: ADME, organism-based, Macaca fascicularis; conditions: in vivo, at 92 µmol/kg, time 0.083-48 hrs
[47] = Change in Cmax in cynomolgus monkey at 275 umol/kg, po measured after 0.083 to 48 hrs by LC-MS/MS analysis; type: ADME, organism-based, Macaca fascicularis; conditions: in vivo, at 275 µmol/kg, time 0.083-48 hrs
[48] = Change in Cmax in cynomolgus monkey at 825 umol/kg, po measured after 0.083 to 48 hrs by LC-MS/MS analysis; type: ADME, organism-based, Macaca fascicularis; conditions: in vivo, at 825 µmol/kg, time 0.083-48 hrs
[49] = Change in AUC(infinity) in cynomolgus monkey at 92 umol/kg, po measured after 0.083 to 48 hrs by LC-MS/MS analysis; type: ADME, organism-based, Macaca fascicularis; conditions: in vivo, at 92 µmol/kg, time 0.083-48 hrs
[50] = Change in AUC(infinity) in cynomolgus monkey at 275 umol/kg, po measured after 0.083 to 48 hrs by LC-MS/MS analysis; type: ADME, organism-based, Macaca fascicularis; conditions: in vivo, at 275 µmol/kg, time 0.083-48 hrs
[51] = Change in AUC(infinity) in cynomolgus monkey at 825 umol/kg, po measured after 0.083 to 48 hrs by LC-MS/MS analysis; type: ADME, organism-based, Macaca fascicularis; conditions: in vivo, at 825 µmol/kg, time 0.083-48 hrs

`CCOC(=O)[C@@H](Cc1cn(C)c2ccccc12)NC(=O)[C@@H](N)CC(C)C.Cl` gave a Cmax/dose [1] of 16.2 µM, an AUC/dose [2] of 888 µM·h and a Tmax [3] of 0.5 h. It also gave a half-life [4] of 2.9 h, a half-life [5] of 2.2 h and a half-life [6] of 3.1 h. It also gave a half-life [7] of 3.2 h, a Cmax [8] of 0.135 µM and a Cmax [9] of 0.135 µM. For the same compound, the Cmax [10] was 0.00846 µM, the Cmax [11] was 0.00971 µM and the Cmax [12] was 0.00774 µM. For the same compound, the Cmax [13] was 0.0105 µM, the Cmax [14] was 0.0171 µM and the Cmax [15] was 0.0126 µM. The Cmax [16] was 0.403 µM, the Cmax [17] was 0.0759 µM and the Cmax [18] was 0.148 µM. It also gave a Tmax [19] of 2 h, a Tmax [20] of 1 h and a Tmax [21] of 2 h. It also gave a Tmax [22] of 3 h, a Tmax [23] of 2 h and a Tmax [24] of 1 h. The Tmax [25] was 2 h, the AUC(0-t) at 24 h [26] was 0.0287 µM·h and the AUC at 24 h [27] was 0.057 µM·h. The half-life [28] was 3 h, the AUC at 24 h [29] was 0.0806 µM·h and the half-life [30] was 8.5 h. It also gave an AUC(0-t) at 24 h [31] of 0.0602 µM·h, an AUC [32] of 0.966 µM·h and a half-life [33] of 9.7 h. For the same compound, the AUC [34] was 0.966 µM·h, the half-life [35] was 9.7 h and the Drug metabolism [36] was “Metabolite_Notdetected”. For the same compound, the Drug metabolism [37] was “Metabolite_Notdetected”, the AUC at 672 h [38] was 320 µM·h and the Activity [39] was 24%. The Activity [40] was 75%, the Activity [41] was 92% and the Activity [42] was 112%. The Activity [43] was 5%, the Activity [44] was 70% and the Activity [45] was 15%. The Activity [46] was 518%, the Activity [47] was 476% and the Activity [48] was 230%. The Activity [49] was 195%, the Activity [50] was 518% and the Activity [51] was 416%.

Compound `Cn1cc(C[C@@H](N)C(=O)O)c2ccccc21` [INDOXIMOD] has a Cmax/dose [1] of 17.3 µM, an AUC/dose [2] of 508 µM·h and a Tmax [3] of 0.6 h. The half-life [4] was 3 h, the half-life [5] was 2.8 h and the half-life [6] was 3.1 h. For the same compound, the half-life [7] was 3.4 h, the Cmax [8] was 39.5 µM and the Cmax [9] was 43.1 µM. It also gave a Cmax [10] of 55 µM, a Cmax [11] of 59.3 µM and a Cmax [12] of 47.3 µM. The Cmax [13] was 79 µM, the Cmax [14] was 93.4 µM and the Cmax [15] was 97.7 µM. It also gave a Cmax [16] of 203 µM, a Cmax [17] of 387 µM and a Cmax [18] of 311 µM. For the same compound, the Tmax [19] was 1 h, the Tmax [20] was 1 h and the Tmax [21] was 2 h. For the same compound, the Tmax [22] was 2 h, the Tmax [23] was 2.5 h and the Tmax [24] was 2 h. For the same compound, the Tmax [25] was 4 h, the AUC(0-t) at 24 h [26] was 177 µM·h and the AUC at 24 h [27] was 403 µM·h. It also gave a half-life [28] of 2.7 h, an AUC at 24 h [29] of 509 µM·h and a half-life [30] of 2.8 h. It also gave an AUC(0-t) at 24 h [31] of 525 µM·h, an AUC [32] of 6450 µM·h and a half-life [33] of 10.2 h. The AUC [34] was 4470 µM·h, the half-life [35] was 4.3 h and the Drug metabolism [36] was “Metabolite_Notdetected”. For the same compound, the Drug metabolism [37] was “Metabolite_Notdetected”, the AUC at 672 h [38] was 320 µM·h and the Activity [39] was 0%. It also gave an Activity [40] of 0%, an Activity [41] of 0% and an Activity [42] of 0%. It also gave an Activity [43] of 0%, an Activity [44] of 0% and an Activity [45] of 0%. It also gave an Activity [46] of 0%, an Activity [47] of 0% and an Activity [48] of 0%. The Activity [49] was 0%, the Activity [50] was 0% and the Activity [51] was 0%.
